# Several values for one entry are separate records, joined by “and”; a condition that tells them apart may be missing. Equal values may be shown once. Read-outs that look alike come from different tables or passages of the source.
# Columns and labels:
# [1] = Radiochemical HPLC profiling of urine after [^14C]DMAE; settings: Oral
# [2] = as above; format: in vivo, Harlan Sprague Dawley rats
# rodents = settings: ref NTP 2002; cited from earlier work
# [3] = for residual radioactivity remaining in tissues (excluding GI tract): male and female rats
# [4] = female mice, gavage 160 mg/kg, 24 h
# [5] = Formation of N,N-dimethylnitrosamine after oral DMAE; format: in vivo; settings: rats, oral DMAE 10 to 500 mg/kg; limit of quantitation 5 pg/mL
# [6] = female rats, IV 16 mg/kg, 24 h, DMAE dose 0
# [7] = female rats, IV 16 mg/kg, 24 h, DMAE dose 0, listed as [^14C]choline, 16 mg/kg
# [8] = female rats, gavage 160 mg/kg, 24 h, DMAE dose 0
# [9] = female rats, gavage 160 mg/kg, 24 h, DMAE dose 0, listed as [^14C]choline, 160 mg/kg
# [10] = female rats, gavage 160 mg/kg, 24 h, DMAE pre-treatment 100 mg/kg
# [11] = female rats, gavage 160 mg/kg, 24 h, DMAE pre-treatment 500 mg/kg
# [12] = male rats, IV 16 mg/kg, 24 h, DMAE dose 0
# [13] = male rats, gavage 160 mg/kg, 24 h, DMAE dose 0
# [14] = male rats, gavage 160 mg/kg, 24 h, DMAE pre-treatment 100 mg/kg, 1 h prior
# [15] = male rats, gavage 160 mg/kg, 24 h, DMAE pre-treatment 500 mg/kg, 1 h prior
# [16] = male rats, gavage 160 mg/kg, 24 h, three DMAE pre-treatments 100 mg/kg 48, 24 and 1 h prior
# [17] = DMAE dose 0, listed as [^14C]choline, 160 mg/kg
# [18] = DMAE pre-treatment 500 mg/kg, 1 h prior
compound,measurement,setting,value
C[N+](C)([O-])CCO [DMAE Oxide],Estimated percentage of area of DMAE Oxide peak in urine chromatogram,"[1]; Mouse/Female, [^14C]DMAE 10 mg/kg",92%
same,Estimated percentage of area of DMAE Oxide peak in urine chromatogram,"[1]; Mouse/Female, [^14C]DMAE 100 mg/kg",18%
same,Estimated percentage of area of DMAE Oxide peak in urine chromatogram,"[1]; Mouse/Female, [^14C]DMAE 500 mg/kg",34%
same,Estimated percentage of area of DMAE Oxide peak in urine chromatogram,"[1]; Mouse/Male, [^14C]DMAE 500 mg/kg",0%
same,Estimated percentage of area of DMAE Oxide peak in urine chromatogram,"[1]; Mouse/Male, [^14C]DMAE 500 mg/kg, listed as DMAE oxide",absent
same,Estimated percentage of area of DMAE Oxide peak in urine chromatogram,"[2]; Rat/Female, [^14C]DMAE 500 mg/kg, Oral",45%
same,Estimated percentage of area of DMAE Oxide peak in urine chromatogram,"[2]; Rat/Male, [^14C]DMAE 10 mg/kg, IV",97%
same,Estimated percentage of area of DMAE Oxide peak in urine chromatogram,"[2]; Rat/Male, [^14C]DMAE 10 mg/kg, Oral",5%
same,Estimated percentage of area of DMAE Oxide peak in urine chromatogram,"[2]; Rat/Male, [^14C]DMAE 100 mg/kg, Oral",44%
same,Estimated percentage of area of DMAE Oxide peak in urine chromatogram,"[2]; Rat/Male, [^14C]DMAE 500 mg/kg, Oral",66%
"C[N+](C)(C)CCO [choline, N,N,N-trimethylaminoethanol]",oral LD50,rodents,3400 to 3900 mg/kg
same,"% Dose Recovered, CO2",[3]; [6],28.1 ± 2.90 % dose
same,"% Dose Recovered, Tissues and GI Tract (includes contents)",[3]; [6],54.0 ± 5.50 % dose
same,"% Dose Recovered, VOCs",[3]; [6],0.284 ± 0.038 % dose
same,"% Dose Recovered, Total Recovered",[3]; [7],90.1 ± 6.10 % dose
same,"% Dose Recovered, Urine",[3]; [7],7 % dose and 7.45 ± 2.58 % dose
same,"% Dose Recovered, Tissues and GI Tract (includes contents)",[3]; [8],26.1 ± 3.80 % dose
same,"% Dose Recovered, Total Recovered",[3]; [8],91.3 ± 9.60 % dose
same,"% Dose Recovered, VOCs",[3]; [8],0.325 ± 0.025 % dose
same,"% Dose Recovered, CO2",[3]; [9],18 % dose and 17.8 ± 1.70 % dose
same,"% Dose Recovered, Urine",[3]; [9],34 % dose and 34.2 ± 7.90 % dose
same,"% Dose Recovered, Tissues and GI Tract (includes contents)",[3]; [10],24.7 ± 2.70 % dose
same,"% Dose Recovered, Total Recovered",[3]; [10],92.9 ± 4.80 % dose
same,"% Dose Recovered, VOCs",[3]; [10],0.268 ± 0.026 % dose
same,dose recovered in tissues (excluding GI tract),[3]; [10],21%
same,"% Dose Recovered, CO2",[3]; [11],22.4 ± 3.60 % dose
same,"% Dose Recovered, Tissues and GI Tract (includes contents)",[3]; [11],25.9 ± 4.70 % dose
same,"% Dose Recovered, Total Recovered",[3]; [11],94.1 ± 4.80 % dose
same,"% Dose Recovered, Urine",[3]; [11],43.3 ± 5.60 % dose
same,"% Dose Recovered, VOCs",[3]; [11],0.227 ± 0.057 % dose
same,recovery in tissues other than the GI tract,"[3]; female rats, gavage 160 mg/kg, 24 h, [^14C]choline alone",~ 21%
same,total dose recovered,"[3]; female rats, gavage 160 mg/kg, range over groups",91–94%
same,residual radioactivity remaining in tissues (excluding GI tract),"[3]; IV 16 mg/kg, 24 h",48–49%
same,residual radioactivity remaining in tissues (excluding GI tract),"[3]; oral gavage, 24 h",17–21%
same,"% Dose Recovered, CO2",[3]; [12],17.4 ± 2.40 % dose
same,"% Dose Recovered, Tissues and GI Tract (includes contents)",[3]; [12],56.2 ± 9.90 % dose
same,"% Dose Recovered, VOCs",[3]; [12],0.139 ± 0.035 % dose
same,"% Dose Recovered, Urine","[3]; male rats, IV 16 mg/kg, 24 h, DMAE dose 0, listed as [^14C]choline, 16 mg/kg",4 % dose and 3.92 ± 0.850 % dose
same,"% Dose Recovered, Tissues and GI Tract (includes contents)",[3]; [13],21.4 ± 2.80 % dose
same,"% Dose Recovered, Total Recovered",[3]; [13],88.2 ± 5.50 % dose
same,"% Dose Recovered, CO2","[3]; male rats, gavage 160 mg/kg, 24 h, DMAE dose 0, listed as [^14C]choline, 160 mg/kg",12.5 ± 2.20 % dose
same,"% Dose Recovered, CO2",[3]; [14],12.4 ± 1.70 % dose
same,"% Dose Recovered, Tissues and GI Tract (includes contents)",[3]; [14],20.4 ± 5.60 % dose
same,"% Dose Recovered, Urine",[3]; [14],31.9 ± 4.60 % dose
same,"% Dose Recovered, VOCs",[3]; [14],0.018 ± 0.003 % dose
same,"% Dose Recovered, CO2",[3]; [15],15.1 ± 4.00 % dose
same,"% Dose Recovered, Tissues and GI Tract (includes contents)",[3]; [15],20.0 ± 3.80 % dose
same,"% Dose Recovered, Urine",[3]; [15],40.7 ± 6.30 % dose
same,"% Dose Recovered, VOCs",[3]; [15],0.065 ± 0.002 % dose
same,dose recovered in tissues (excluding GI tract),"[3]; male rats, gavage 160 mg/kg, 24 h, [^14C]choline alone",~ 18%
same,dose recovered in feces,"[3]; male rats, gavage 160 mg/kg, 24 h, pre-treatment with multiple doses of 100 mg/kg or a single dose of 500 mg/kg DMAE",10–12%
same,"% Dose Recovered, CO2",[3]; [16],17.0 ± 1.70 % dose
same,"% Dose Recovered, Tissues and GI Tract (includes contents)",[3]; [16],26.6 ± 5.30 % dose
same,"% Dose Recovered, Total Recovered",[3]; [16],93.7 ± 2.70 % dose
same,"% Dose Recovered, Urine",[3]; [16],39.9 ± 3.80 % dose
same,"% Dose Recovered, VOCs",[3]; [16],below the limit of detection
same,"% Dose Recovered, Tissues and GI Tract (includes contents)",[4]; DMAE dose 0,18.2 ± 2.90 % dose
same,"% Dose Recovered, CO2",[4]; [17],25 % dose and 24.5 ± 5.40 % dose
same,"% Dose Recovered, Urine",[4]; [17],32 % dose and 31.8 ± 11.1 % dose
same,"% Dose Recovered, VOCs",[4]; [17],4 % dose and 3.61 ± 3.75 % dose
same,"% Dose Recovered, CO2",[4]; [18],26.4 ± 8.60 % dose
same,"% Dose Recovered, Tissues and GI Tract (includes contents)",[4]; [18],18.4 ± 9.80 % dose
same,"% Dose Recovered, VOCs",[4]; [18],2.41 ± 1.77 % dose
same,"% Dose Recovered, Urine","[4]; DMAE pre-treatment 500 mg/kg, 1 h prior, listed as [^14C]choline",32 % dose and 32.4 ± 7.20 % dose
same,recovery in tissues (excluding GI tract),[4]; [^14C]choline alone,15%
"CN(C)N=O [N,N-dimethylnitrosamine]","N,N-dimethylnitrosamine detection",[5],not detected
